Test results from ChEMBL document CHEMBL5034015, “Structure-Based Optimization of 3-Phenyl-N-(2-(3-phenylureido)ethyl)thiophene-2-sulfonamide Derivatives as Selective Mcl-1 Inhibitors” (J Med Chem, 2021).
Calls of active or inactive are those of the source. Unless noted, no cut-off for these calls is given here.

Tests used:
RS4-11 = assay: cells; details: Homo sapiens, RS4-11, 48 h
Description: Cytotoxicity against human RS4-11 cells assessed as inhibition of cell growth incubated for 48 hrs by CCK8 assay

Bcl-2-like protein 1 [1] = target: T1, Bcl-2-like protein 1 (Homo sapiens, UniProt Q07817); assay: Binding affinity to full length human Bcl-xl expressed in Escherichia coli BL21 (DE3) assessed as inhibition constant preincubated for 30 mins followed by 5-FAM-QEDIIIINIARHLAQVGDSMD-RSIPPG tracer addition and measured after 20 mins by fluorescence polarization assay
HEK-293T = assay: Cytotoxicity against HEK293T cells assessed as reduction in cell viability incubated for 48 hrs by CCK8 assay; details: Homo sapiens
HeLa [2] = assay: cells; details: Homo sapiens, 48 h
Description: Cytotoxicity against human HeLa cells assessed as inhibition of cell growth incubated for 48 hrs by CCK8 assay

[3] = target: T2, Induced myeloid leukemia cell differentiation protein Mcl-1 (Homo sapiens, UniProt Q07820); assay: Binding affinity to full length human MCL1 expressed in Escherichia coli BL21 (DE3) assessed as inhibition constant preincubated for 30 mins followed by 5-FAM-QEDIIIINIARHLAQVGDSMD-RSIPPG tracer addition and measured after 20 mins by fluorescence polarization assay
[4] = target: T3, Apoptosis regulator Bcl-2 (Homo sapiens, UniProt P10415); assay: Binding affinity to full length human Bcl-2 expressed in Escherichia coli BL21 (DE3) assessed as inhibition constant preincubated for 30 mins followed by 5-FAM-QEDIIIINIARHLAQVGDSMD-RSIPPG tracer addition and measured after 20 mins by fluorescence polarization assay
HL-60 = assay: cells; details: Homo sapiens, HL-60, 48 h
Description: Cytotoxicity against human HL-60 cells assessed as inhibition of cell growth incubated for 48 hrs by CCK8 assay

[5] = target: T3, Apoptosis regulator Bcl-2; assay: Binding affinity to full length human Bcl-2 expressed in Escherichia coli BL21 (DE3) at 100 uM preincubated for 30 mins followed by 5-FAM-QEDIIIINIARHLAQVGDSMD-RSIPPG tracer addition and measured after 20 mins by fluorescence polarization assay relative to control; details: time 50.0 min
Bcl-2-like protein 1 [6] = target: T1, Bcl-2-like protein 1; assay: Binding affinity to full length human Bcl-xl expressed in Escherichia coli BL21 (DE3) at 100 uM preincubated for 30 mins followed by 5-FAM-QEDIIIINIARHLAQVGDSMD-RSIPPG tracer addition and measured after 20 mins by fluorescence polarization assay relative to control; details: time 50.0 min
HeLa [7] = assay: Cytotoxicity against human HeLa cells assessed as cell viability at 20 uM incubated for 48 hrs by CCK8 assay relative to control; assay type: functional; details: read-out: Activity
[8] = target: T2, Induced myeloid leukemia cell differentiation protein Mcl-1; assay: Binding affinity to full length human MCL1 expressed in Escherichia coli BL21 (DE3) at 100 uM preincubated for 30 mins followed by 5-FAM-QEDIIIINIARHLAQVGDSMD-RSIPPG tracer addition and measured after 20 mins by fluorescence polarization assay relative to control; details: time 50.0 min
Bcl-2-like protein 1 [9] = target: T1, Bcl-2-like protein 1; assay: Binding affinity to full length human Bcl-xl expressed in Escherichia coli BL21 (DE3) at up to 100 uM preincubated for 30 mins followed by 5-FAM-QEDIIIINIARHLAQVGDSMD-RSIPPG tracer addition and measured after 20 mins by fluorescence polarization assay; details: dose microM <=100, time 50.0 min
[10] = Cytotoxicity against HEK293T cells assessed as cell viability at 20 uM incubated for 48 hrs by CCK8 assay relative to control; assay type: cell-based, HEK-293T; details: human, read-out: Activity
[11] = target: T2, Induced myeloid leukemia cell differentiation protein Mcl-1; assay: Binding affinity to 15N-labeled human MCL1 (172 to 327 residues) expressed in Escherichia coli BL21 (DE3) assessed as chemical shift at M250 residue at 0.3 mM incubated for 1 hr by 15N HSQC NMR spectroscopy analysis
[12] = target: T2, Induced myeloid leukemia cell differentiation protein Mcl-1; assay: Binding affinity to 15N-labeled human MCL1 (172 to 327 residues) expressed in Escherichia coli BL21 (DE3) assessed as chemical shift at L235 residue at 0.3 mM incubated for 1 hr by 15N HSQC NMR spectroscopy analysis
[13] = target: T2, Induced myeloid leukemia cell differentiation protein Mcl-1; assay: Binding affinity to 15N-labeled human MCL1 (172 to 327 residues) expressed in Escherichia coli BL21 (DE3) assessed as chemical shift at M231 residue at 0.3 mM incubated for 1 hr by 15N HSQC NMR spectroscopy analysis
[14] = target: T2, Induced myeloid leukemia cell differentiation protein Mcl-1; assay: Binding affinity to 15N-labeled human MCL1 (172 to 327 residues) expressed in Escherichia coli BL21 (DE3) assessed as chemical shift at H224 residue at 0.3 mM incubated for 1 hr by 15N HSQC NMR spectroscopy analysis
[15] = target: T2, Induced myeloid leukemia cell differentiation protein Mcl-1; assay: Binding affinity to 15N-labeled human MCL1 (172 to 327 residues) expressed in Escherichia coli BL21 (DE3) assessed as chemical shift at F228 residue at 0.3 mM incubated for 1 hr by 15N HSQC NMR spectroscopy analysis
[16] = target: T2, Induced myeloid leukemia cell differentiation protein Mcl-1; assay: Binding affinity to 15N-labeled human MCL1 (172 to 327 residues) expressed in Escherichia coli BL21 (DE3) assessed as chemical shift at R263 residue at 0.3 mM incubated for 1 hr by 15N HSQC NMR spectroscopy analysis
[17] = target: T3, Apoptosis regulator Bcl-2; assay: Binding affinity to full length human Bcl-2 expressed in Escherichia coli BL21 (DE3) at up to 100 uM preincubated for 30 mins followed by 5-FAM-QEDIIIINIARHLAQVGDSMD-RSIPPG tracer addition and measured after 20 mins by fluorescence polarization assay; details: dose microM <=100, time 50.0 min

T3 sequence (P10415 whole entry): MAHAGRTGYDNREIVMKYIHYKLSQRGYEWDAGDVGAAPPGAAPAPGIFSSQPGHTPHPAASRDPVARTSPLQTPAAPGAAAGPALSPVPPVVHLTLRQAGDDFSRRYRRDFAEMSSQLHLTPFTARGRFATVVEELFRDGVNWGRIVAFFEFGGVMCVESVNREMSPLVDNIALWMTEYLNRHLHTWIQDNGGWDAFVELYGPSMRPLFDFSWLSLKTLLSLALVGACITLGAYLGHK
T2 sequence (Q07820 whole entry): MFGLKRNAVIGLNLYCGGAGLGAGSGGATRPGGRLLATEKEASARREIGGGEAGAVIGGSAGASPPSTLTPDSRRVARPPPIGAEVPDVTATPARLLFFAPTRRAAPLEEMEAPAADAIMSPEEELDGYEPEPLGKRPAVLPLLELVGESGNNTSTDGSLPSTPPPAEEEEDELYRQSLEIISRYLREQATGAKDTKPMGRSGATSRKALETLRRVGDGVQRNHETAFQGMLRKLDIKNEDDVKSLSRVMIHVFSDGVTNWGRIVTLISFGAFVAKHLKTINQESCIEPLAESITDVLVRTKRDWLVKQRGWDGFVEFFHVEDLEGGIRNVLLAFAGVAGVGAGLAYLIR
T1 sequence (Q07817 whole entry): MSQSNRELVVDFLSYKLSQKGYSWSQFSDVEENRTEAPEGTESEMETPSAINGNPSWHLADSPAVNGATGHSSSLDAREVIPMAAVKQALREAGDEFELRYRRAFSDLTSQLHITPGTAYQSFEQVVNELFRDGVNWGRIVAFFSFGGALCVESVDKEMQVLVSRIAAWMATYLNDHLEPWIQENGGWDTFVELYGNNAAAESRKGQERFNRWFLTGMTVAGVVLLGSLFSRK

Row | SMILES | IC50 (RS4-11) | Ki (Bcl-2-like protein 1 [1]) | IC50 (HEK-293T) | IC50 (HeLa [2]) | Ki [3] | Ki [4] | IC50 (HL-60) | inhibition [5] | inhibition (Bcl-2-like protein 1 [6]) | viability at 20 µM (HeLa [7]) | inhibition [8] | Activity (Bcl-2-like protein 1 [9]) | viability at 48 h, 20 µM [10] | Activity [11] | Activity [12] | Activity [13] | Activity [14] | Activity [15] | Activity [16] | Activity [17]
1 | O=S(=O)(NCCNC(=S)Nc1cc(C(F)(F)F)cc(C(F)(F)F)c1)c1cc(-c2ccccc2Oc2ccc(O)c(O)c2)cs1 | 4.5 µM | 1 µM | > 20 µM | > 20 µM | 0.32 µM | 4.6 µM | 0.6 µM | – | – | – | – | – | – | – | – | – | – | – | – | –
2 | O=[N+]([O-])c1ccc(NC(=S)N2CCN(S(=O)(=O)c3sccc3-c3ccccc3Oc3ccc(O)c(O)c3)CC2)cc1 | 9 µM | – | > 20 µM | – | – | – | 5.3 µM | 31% | 28% | 49% | 81% | – | – | – | – | – | – | – | – | –
3 | O=C(NCCNS(=O)(=O)c1sccc1-c1ccccc1Oc1ccc(O)c(O)c1)Nc1cc(Cl)cc(Cl)c1 | 6.2 µM | – | 10.7 µM | > 50 µM | 1.4 µM | 4.6 µM | 6.9 µM | – | – | – | – | inactive | – | – | – | – | – | – | – | –
4 | Cc1ccc(-c2ccsc2S(=O)(=O)NCCNC(=O)Nc2cc(Cl)cc(Cl)c2)c(Oc2ccc(O)c(O)c2)c1 | 5.1 µM | – | 6.7 µM | 6.5 µM | 0.59 µM | 2.9 µM | 3.5 µM | – | – | – | – | inactive | – | – | – | – | – | – | – | –
5 | Cc1ccc(-c2ccsc2S(=O)(=O)NCCNC(=O)Nc2ccc([N+](=O)[O-])cc2)c(Oc2ccc(O)c(O)c2)c1 | 7.7 µM | – | – | > 20 µM | 7.1 µM | 13 µM | 3.9 µM | – | – | – | – | inactive | 48% | – | – | – | – | – | – | –
6 | O=[N+]([O-])c1ccc(Oc2ccc(O)c(O)c2)c(-c2ccsc2S(=O)(=O)N2CCN(C(=S)Nc3cc(C(F)(F)F)cc(C(F)(F)F)c3)CC2)c1 | 9.5 µM | – | > 20 µM | > 20 µM | – | – | 8.4 µM | 12% | 14% | – | 52% | – | – | Active | Active | Active | Active | Active | Active | –
7 | CC(C)c1ccc(Oc2ccc(O)c(O)c2)c(-c2ccsc2S(=O)(=O)NCCNC(=S)Nc2cc(C(F)(F)F)cc(C(F)(F)F)c2)c1 | 3.7 µM | 4.9 µM | 18.1 µM | > 20 µM | 2.1 µM | 2.4 µM | 8.2 µM | – | – | – | – | – | – | Active | Active | Active | Active | Active | Active | –
8 | Cc1ccc(-c2ccsc2S(=O)(=O)NCCNC(=S)Nc2cccc([N+](=O)[O-])c2)c(Oc2ccc(O)c(O)c2)c1 | 6.1 µM | – | 7.9 µM | – | 7.5 µM | – | 3.4 µM | – | – | 40% | – | inactive | – | – | – | – | – | – | – | inactive
9 | O=C(NCCNS(=O)(=O)c1ccc(-c2ccccc2Oc2ccc(O)c(O)c2)s1)Nc1cc(Cl)cc(Cl)c1 | 4.5 µM | 1.7 µM | 12.4 µM | > 20 µM | 0.94 µM | 3.6 µM | 10.4 µM | – | – | – | – | – | – | – | – | – | – | – | – | –
10 | O=C(NCCNS(=O)(=O)c1ccc(-c2ccccc2Oc2ccc(O)c(O)c2)s1)Nc1cc(C(F)(F)F)cc(C(F)(F)F)c1 | 4.9 µM | 1.5 µM | 17.1 µM | > 20 µM | 0.42 µM | 3.9 µM | 10.5 µM | – | – | – | – | – | – | – | – | – | – | – | – | –
